Source: publication PMC6018746, “Activation of the p53-MDM4 regulatory axis defines the anti-tumour response to PRMT5 inhibition through its role in regulating cellular splicing” (Scientific Reports, 2018)
pEC50, pIC50: −log10 of the molar value. One block for each molecule: values may come before it.

What was measured:
[1] = tested on: MDM4 alternative splicing in Z-138 cells; test: MDM4 splicing RT-PCR; type: cell-based, human; details: 3-day exposure, 1.6 nM to 1 μM tested
Procedure: We confirmed PRMT5 inhibitor-induced alternative splicing of MDM4 from the full-length isoform (MDM4-FL) to the short isoform (MDM4-S) at both treatment concentrations, with the most robust changes after 3 days of compound exposure.
RNA was isolated from cell pellets as described above and was converted to cDNA using ABI High Capacity Reverse Transcription Reagents (4274966) per manufacturer’s instructions and PCR was performed as described elsewhere. Reaction products were separated using agarose ethidium bromide gel electrophoresis and visualized using a Bio-Rad VersaDoc Model 5000 imaging system.

SDMA in Z-138 tumors = test: SDMA in Z-138 tumour xenograft; type: in vivo, mouse; details: 7 days
Procedure: Treatment was re-instated on day 32 for 2 weeks followed by a 1 week holiday. […] QD doses evaluated include 0, 50, 100, and 200 mg/kg. […] Sampling 2 hours post last dose. […] SDMA ELISA was performed on homogenized cells and frozen tumour lysates. Fluorescence intensity generated by addition of Luminata Forte (Millipore #WBKUF0500) substrate was measured on a PerkinElmer Envision plate reader.

mouse pharmacokinetics = type: in vivo; details: data not shown
[2] = body weight of Z-138 tumour bearing mice; type: in vivo, mouse; details: any of the treatment groups
Text: Supplementary Figure S7. […] Z-138 tumour
Treatments were reinstated on day 32 for 2 weeks followed by a one week holiday.

[3] = tested on: SDMA in a panel of breast and lymphoma cell lines; test: SDMA EC50 in breast and lymphoma cell line panel; type: cell-based; details: Homo sapiens; all cell lines of the panel; read-out: SDMA EC50 range
Procedure: SDMA ELISA was performed on homogenized cells and frozen tumour lysates. Fluorescence intensity generated by addition of Luminata Forte (Millipore #WBKUF0500) substrate was measured on a PerkinElmer Envision plate reader.
Cells were seeded in optical bottom cell culture plates and targets were probed with fluorescent secondary antibodies and DAPI stain. Quantification of nuclear SDMA and SMD3 levels was performed with a Molecular Devices […] high-content fluorescence imager and image analysis was performed with ImageExpress software.

[4] = tested on: p53 wild-type Z-138 xenograft model; test: Z-138 xenograft efficacy; type: in vivo, mouse; details: 21 days
[5] = tested on: p53 mutant MCL xenograft model, REC-1; test: REC-1 xenograft efficacy; type: in vivo, mouse; details: 100 mg/kg BID
Text: We also observed an increase in the expression of p53 target genes including p21/CDKN1 (Supplementary Figure S7B), confirming induction of p53 activity.

[6] = target: panel containing 20 methyltransferases including PRMT9; test: methyltransferase selectivity panel; type: biochemical; details: other methyltransferases including PRMT9, substrates near KM^app
Procedure: (A) Plots indicating the mode of inhibition against
IC50 values are graphed as a function of substrate concentration relative to Kmapp
(top panel, SAM; bottom panel, H4 1-21 peptide). Data points (closed vs. open
circles) represent two independent experiments. (B) IC50 values plotted as a
represent data generated using 0.8 nM PRMT5/MEP50 while closed circles
represent data with 4 nM PRMT5/MEP50 (top panel).
following a 60 minute Enz:SAM:Inh preincubation fit to a 3-parameter dose-
Enz:SAM:Inh preincubation. IC50 values were determined by fitting inhibition
data to a 3-parameter dose-response equation. Ki*app values were calculated
from IC50 values using the Cheng-Prusoff equation for a competitive inhibitor.

SMILES: O=C(NC[C@H](O)CN1CCc2ccccc2C1)c1ccnc(NC2CCC2)c1 [GSK3203591]
concentration at which MDM4 alternative splicing was evident [1]: ≥ 8 nM

elimination half-life (mouse pharmacokinetics): 1.8 h
pEC50 [3]: 6.80 to 8.70
pIC50 [6]: < 4.40
SMILES: CC(=O)N1CCC(Nc2cc(C(=O)NC[C@H](O)CN3CCc4ccccc4C3)ncn2)CC1 [GSK3326595]
SDMA % vehicle (SDMA in Z-138 tumors; 0.5 mg/kg BID): 71%
SDMA % vehicle (SDMA in Z-138 tumors; 1.4 mg/kg BID): 47%
SDMA % vehicle (SDMA in Z-138 tumors; 4.2 mg/kg BID): 28%
SDMA % vehicle (SDMA in Z-138 tumors; 12.5 mg/kg BID): 9%
SDMA % vehicle (SDMA in Z-138 tumors; 25 mg/kg BID): 5%
SDMA % vehicle (SDMA in Z-138 tumors; 50 mg/kg BID): 8%
SDMA % vehicle (SDMA in Z-138 tumors; 50 mg/kg QD): 16%
SDMA % vehicle (SDMA in Z-138 tumors; 100 mg/kg BID): 2%
SDMA % vehicle (SDMA in Z-138 tumors; 100 mg/kg QD): 12%
SDMA % vehicle (SDMA in Z-138 tumors; 200 mg/kg QD): 9%
body weight [2]: No significant body weight losses
tumour growth inhibition (TGI) ([4]; 25 mg/kg BID oral): 52.1%
tumour growth inhibition (TGI) ([4]; 50 mg/kg BID oral): 88.03%
tumour growth inhibition (TGI) ([4]; 100 mg/kg BID oral): 106.05%
TGI [5]: 55%
